Measured values taken from US20260209234A1, “SUBSTITUTED DIHYDROPYRROLO[3,4-D]PYRIMIDINE COMPOUNDS AND THEIR USE IN TREATING MEDICAL CONDITIONS” (Karuna Therapeutics, Inc., priority 2022, published 2026).

Assays:
hM4 receptors = biological target: T1, hM4 receptors (Homo sapiens, UniProt P08173); assay: Human M4 PAM pERK assay; format: cell-based; conditions: CHO cells expressing hM4; EC20 of acetylcholine (10 nM final); TR-FRET
T1 construct: expressed in transfected cells; host or cells: CHO cells
T1 sequence (P08173 1-479): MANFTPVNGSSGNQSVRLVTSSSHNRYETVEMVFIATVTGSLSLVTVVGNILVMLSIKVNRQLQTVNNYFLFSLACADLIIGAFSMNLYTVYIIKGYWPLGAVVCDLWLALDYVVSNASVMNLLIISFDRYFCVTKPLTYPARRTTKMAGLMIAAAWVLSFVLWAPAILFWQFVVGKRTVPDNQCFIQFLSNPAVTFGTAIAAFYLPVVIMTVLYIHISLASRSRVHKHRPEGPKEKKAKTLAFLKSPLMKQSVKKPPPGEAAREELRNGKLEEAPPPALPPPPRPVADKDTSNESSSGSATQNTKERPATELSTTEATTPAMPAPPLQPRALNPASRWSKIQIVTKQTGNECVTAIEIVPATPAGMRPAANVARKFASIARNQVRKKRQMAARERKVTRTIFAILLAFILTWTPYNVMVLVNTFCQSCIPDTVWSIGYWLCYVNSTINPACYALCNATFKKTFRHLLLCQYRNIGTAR
Protocol: (§1) Chinese hamster ovary (CHO) cells expressing either hM4 or rM4 receptors were frozen in assay ready vials (5×10^6 cells/vial) after bulking-up in culture. The day before an assay, vial(s) were thawed and cells seeded in 384 well white proxiplates at 1000/well for hM4 cells and at 2000/well for rM4 cells, in 10 μL of growth media (Hams/F12 with glutamax and 10% FCS) and incubated overnight at 37° C./5% CO2.
(§2) On the following morning, the growth media was removed by ‘flicking out’ over a bin, patting the inverted plate onto tissue, and then replacing with 10 μL of wash media (Hams/F12 with glutamax and 8 mM HEPES, NB: serum free). Then, the wash media was removed in the same way and replaced with 8 μL/well of the serum free media. Plates were then re-incubated for a further 4 hours at 37° C./5% CO2.
(§3) Compounds for testing were solubilized to 10 mM in DMSO and compound addition plates, consisting of ten-point concentration response curves (CRC) in duplicate points (10 μM top concentration, 1/2 log dilution series), were prepared by acoustic dispensing and the compound management group.
(§4) After the 4-hour incubation in serum free media, a 4 μL aliquot of the 3× compound solution containing an EC20 of acetylcholine (10 nM final concentration) was added to the cell plate using a 384 well plate to plate transfer. Then, the plate lid was replaced, and the cells incubated for 5 mins at 37° C./5% CO2. Following this final incubation, all cellular processes were stopped by the addition of 4 μL/well of lysis and blocking buffer and plates were incubated for 30 minutes at RT on an orbital shaker (gentle setting). Then, a final addition of 4 μL/well of antibody detection mix, containing both the Europium-Cryptate (donor) and d2 (acceptor) tagged detection components, was added followed by a further 2-hour incubation at RT, and then the plate was read using a TR-FRET (time resolved fluorescence resonance energy transfer) based protocol.

rM4 receptors = biological target: T2, rM4 receptors (Rattus norvegicus, UniProt P08485); assay: Rat M4 PAM pERK assay; format: cell-based; conditions: CHO cells expressing rM4; EC20 of acetylcholine (10 nM final); TR-FRET
T2 construct: expressed in transfected cells; host or cells: CHO cells
T2 sequence (P08485 1-478): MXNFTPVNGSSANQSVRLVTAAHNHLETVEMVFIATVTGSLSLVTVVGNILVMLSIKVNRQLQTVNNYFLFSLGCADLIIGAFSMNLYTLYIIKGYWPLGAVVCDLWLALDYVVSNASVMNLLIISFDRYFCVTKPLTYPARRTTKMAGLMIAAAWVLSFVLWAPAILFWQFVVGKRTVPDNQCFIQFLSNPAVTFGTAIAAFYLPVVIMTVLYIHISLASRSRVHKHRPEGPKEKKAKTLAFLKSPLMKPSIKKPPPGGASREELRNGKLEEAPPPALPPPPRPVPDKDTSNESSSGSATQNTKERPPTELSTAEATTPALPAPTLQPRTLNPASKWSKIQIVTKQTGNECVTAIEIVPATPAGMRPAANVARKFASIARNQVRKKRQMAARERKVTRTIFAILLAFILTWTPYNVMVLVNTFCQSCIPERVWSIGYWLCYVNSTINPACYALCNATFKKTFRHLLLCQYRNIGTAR
Protocol: as §1, §2, §3, §4

EC50 (hM4 receptors)	EC50 (rM4 receptors)	Structure (SMILES)
500 to 2000 nM	500 to 2000 nM	COc1nc(C)nc2c1CN(C(=O)CC1CN(c3ccnc(C(F)(F)F)c3)C1)C2C (racemic) [Compound I-61, 1-(4-Methoxy-2,7-dimethyl-5,7-dihydro-6H-pyrrolo[3,4-d]pyrimidin-6-yl)-2-(1-(2-(trifluoromethyl)pyridin-4-yl)azetidin-3-yl)ethan-1-one]
100 to 500 nM	500 to 2000 nM	COc1nc(C#N)nc2c1C(C)N(C(=O)CC1CN(c3ncns3)C1)C2 (single isomer, unassigned) [Compound I-3, 6-(2-(1-(1,2,4-Thiadiazol-5-yl)azetidin-3-yl)acetyl)-4-methoxy-5-methyl-6,7-dihydro-5H-pyrrolo[3,4-d]pyrimidine-2-carbonitrile]
≤ 100 nM	≤ 100 nM	COc1nc(C#N)nc2c1C(C)N(C(=O)CC1CN(c3cc(F)cc(F)c3)C1)C2 (single isomer, unassigned) [Compound I-9, 6-(2-(1-(3,5-Difluorophenyl)azetidin-3-yl)acetyl)-4-methoxy-5-methyl-6,7-dihydro-5H-pyrrolo[3,4-d]pyrimidine-2-carbonitrile]
≥ 2000 nM	≥ 2000 nM	COc1nc(C#N)nc2c1C(C)N(C(=O)CC1CN(c3cc(F)cc(F)c3)C1)C2 (single isomer, unassigned) [Compound I-10, 6-(2-(1-(3,5-Difluorophenyl)azetidin-3-yl)acetyl)-4-methoxy-5-methyl-6,7-dihydro-5H-pyrrolo[3,4-d]pyrimidine-2-carbonitrile]
100 to 500 nM	100 to 500 nM	COc1nc(C#N)nc2c1C(C)N(C(=O)CC1CN(c3cccc(C(F)(F)F)c3)C1)C2 (single isomer, unassigned) [Compound I-16, 4-Methoxy-5-methyl-6-(2-(1-(3-(trifluoromethyl)phenyl)azetidin-3-yl)acetyl)-6,7-dihydro-5H-pyrrolo[3,4-d]pyrimidine-2-carbonitrile]
≥ 2000 nM	≥ 2000 nM	COc1cc(N2CC(CC(=O)N3Cc4nc(C#N)nc(OC)c4C3C)C2)ccn1 (single isomer, unassigned) [Compound I-17, 4-Methoxy-6-(2-(1-(2-methoxypyridin-4-yl)azetidin-3-yl)acetyl)-5-methyl-6,7-dihydro-5H-pyrrolo[3,4-d]pyrimidine-2-carbonitrile]
≤ 100 nM	500 to 2000 nM	COc1cc(N2CC(CC(=O)N3Cc4nc(C#N)nc(OC)c4C3C)C2)ccn1 (single isomer, unassigned) [Compound I-18, 4-Methoxy-6-(2-(1-(2-methoxypyridin-4-yl)azetidin-3-yl)acetyl)-5-methyl-6,7-dihydro-5H-pyrrolo[3,4-d]pyrimidine-2-carbonitrile]
500 to 2000 nM	≥ 2000 nM	COc1nc(C#N)nc2c1C(C)N(C(=O)CC1CN(c3cncnc3)C1)C2 (single isomer, unassigned) [Compound I-26, 4-Methoxy-5-methyl-6-(2-(1-(pyrimidin-5-yl)azetidin-3-yl)acetyl)-6,7-dihydro-5H-pyrrolo[3,4-d]pyrimidine-2-carbonitrile]
≤ 100 nM	500 to 2000 nM	COc1nc(C)nc2c1C(C)N(C(=O)CC1CN(c3cncnc3)C1)C2 (single isomer, unassigned) [Compound I-59, 1-(4-Methoxy-2,5-dimethyl-5,7-dihydro-6H-pyrrolo[3,4-d]pyrimidin-6-yl)-2-(1-(pyrimidin-5-yl)azetidin-3-yl)ethan-1-one]
500 to 2000 nM	100 to 500 nM	COc1nc(C#N)nc2c1C(C)N(C(=O)CC1C(C)N(c3ccnc(C(F)(F)F)c3)C1C)C2 (centres unmarked) [Compound I-40, 6-(2-(2,4-Dimethyl-1-(2-(trifluoromethyl)pyridin-4-yl)azetidin-3-yl)acetyl)-4-methoxy-5-methyl-6,7-dihydro-5H-pyrrolo[3,4-d]pyrimidine-2-carbonitrile]
100 to 500 nM	500 to 2000 nM	COc1nc(C)nc2c1CN(C(=O)CC1CN(c3cccnc3)C1)C2 [Compound I-41, 1-(4-Methoxy-2-methyl-5,7-dihydro-6H-pyrrolo[3,4-d]pyrimidin-6-yl)-2-(1-(pyridin-3-yl)azetidin-3-yl)ethan-1-one]
500 to 2000 nM	≥ 2000 nM	CNc1nc(C)nc2c1CN(C(=O)CC1CN(c3cccnc3)C1)C2 [Compound I-72, 1-(2-Methyl-4-(methylamino)-5,7-dihydro-6H-pyrrolo[3,4-d]pyrimidin-6-yl)-2-(1-(pyridin-3-yl)azetidin-3-yl)ethan-1-one]
500 to 2000 nM	≥ 2000 nM	Cc1nc2c(c(NC3CC3)n1)CN(C(=O)CC1CN(c3cccnc3)C1)C2 [Compound I-73, 1-(4-(Cyclopropylamino)-2-methyl-5,7-dihydro-6H-pyrrolo[3,4-d]pyrimidin-6-yl)-2-(1-(pyridin-3-yl)azetidin-3-yl)ethan-1-one]
≥ 2000 nM	≥ 2000 nM	COc1nc(C2COC2)nc2c1CN(C(=O)CC1CN(c3ccnc(C(F)(F)F)c3)C1)C2 [Compound I-77, 1-(4-Methoxy-2-(oxetan-3-yl)-5,7-dihydro-6H-pyrrolo[3,4-d]pyrimidin-6-yl)-2-(1-(2-(trifluoromethyl)pyridin-4-yl)azetidin-3-yl)ethan-1-one]
100 to 500 nM	500 to 2000 nM	COc1nc(C(F)(F)F)nc2c1CN(C(=O)CC1CN(c3cccnc3)C1)C2 [Compound I-78, 1-(4-Methoxy-2-(trifluoromethyl)-5,7-dihydro-6H-pyrrolo[3,4-d]pyrimidin-6-yl)-2-(1-(pyridin-3-yl)azetidin-3-yl)ethan-1-one]
500 to 2000 nM	≥ 2000 nM	COc1nc(OC(F)F)nc2c1CN(C(=O)CC1CN(c3cccnc3)C1)C2 [Compound I-80, 1-(2-(Difluoromethoxy)-4-methoxy-5,7-dihydro-6H-pyrrolo[3,4-d]pyrimidin-6-yl)-2-(1-(pyridin-3-yl)azetidin-3-yl)ethan-1-one]
